The CheMixHub viscosity set

Test: xn = mol fraction of the nth substance listed
Conditions: 101 kPa

ClCCl + C1COCCO1
viscosity [mPa·s]
Conditions	x1 = 0.117	x1 = 0.1716	x1 = 0.2883	x1 = 0.4089	x1 = 0.4973	x1 = 0.5905	x1 = 0.7057	x1 = 0.7928	x1 = 0.902
293.15 K	1.112	1.045	0.946	0.841	0.76	0.691	0.612	0.553	0.485
298.15 K	1.027	0.97	0.882	0.786	0.713	0.654	0.579	0.525	0.46

CC(=O)O + C1CCCCC1
303.15 K
Conditions	viscosity [mPa·s]
x2 = 0.09517	0.8375
x2 = 0.1912	0.747
x2 = 0.2978	0.6933
x2 = 0.5005	0.6661
x2 = 0.5952	0.6798
x2 = 0.6982	0.6567
x2 = 0.8007	0.6847
x2 = 0.9035	0.7306

CC(=O)O + CC#N
viscosity [mPa·s]
Conditions	x1 = 0.0924	x1 = 0.1864	x1 = 0.282	x1 = 0.3793	x1 = 0.4782	x1 = 0.5789	x1 = 0.6814	x1 = 0.7857	x1 = 0.8919
298.15 K	0.3742	0.4162	0.4785	0.558	0.6509	0.7533	0.8608	0.9682	1.07
308.15 K	0.3267	0.3622	0.4177	0.4891	0.5719	0.6612	0.7513	0.8362	0.9088
318.15 K	0.2808	0.3168	0.3759	0.4515	0.5363	0.6224	0.7005	0.7609	0.7925

ClCCl + CCCCN
viscosity [mPa·s]
Conditions	x2 = 0.102	x2 = 0.1371	x2 = 0.2306	x2 = 0.3081	x2 = 0.435	x2 = 0.5159	x2 = 0.5926	x2 = 0.6971	x2 = 0.8192	x2 = 0.9041
293.15 K	0.441	0.443	0.448	0.452	0.46	0.466	0.471	0.477	0.486	0.493
298.15 K	0.418	0.421	0.425	0.427	0.434	0.439	0.443	0.446	0.454	0.457
303.15 K	0.401	0.403	0.406	0.409	0.414	0.417	0.42	0.424	0.429	0.433
308.15 K	0.385	0.386	0.39	0.392	0.395	0.397	0.4	0.402	0.405	0.408
